Broadly, the IC50 is the concentration at which inhibition is half-maximal. Low readings indicate greater potency in that assay, high ones weaker potency in that assay.

FAK kinase (catalytic construct FAK(410-689)), sequence (Q05397 410-689): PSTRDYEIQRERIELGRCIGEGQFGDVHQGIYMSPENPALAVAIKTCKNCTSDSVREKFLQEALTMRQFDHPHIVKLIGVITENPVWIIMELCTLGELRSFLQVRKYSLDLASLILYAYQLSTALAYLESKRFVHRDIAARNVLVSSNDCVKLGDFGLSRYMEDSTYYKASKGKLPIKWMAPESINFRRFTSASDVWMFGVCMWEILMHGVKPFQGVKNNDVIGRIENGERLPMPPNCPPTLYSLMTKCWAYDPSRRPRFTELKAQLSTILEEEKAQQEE

The assay concerns the target FAK kinase (catalytic construct FAK(410-689)) (Homo sapiens (Human), UniProt Q05397). Put plainly: FAKcd kinase ELISA (inhibition of poly-glu-tyr phosphorylation by FAK(410-689)). In kind it is biochemical. The conditions noted are these: 50 μM final ATP. The procedure:
A. In-Vitro Activity of FAK:
The assay protocol has three parts:
3. […] 4. […] 5. […] 6. […] 7. […] 9. […] 10. […] 12. […] 13. […] 14. Aliquot the FAKcd protein and store frozen at −80° C. II. FAK Activation 1. […] At t120 (t=120 minutes), add 10 μl of 150 mM ATP. […] Add 180 μl aliquots of the desalted material to NiNTA spin column and incubate on spin column 4. […] FAKcd Kinase ELISA 1. Coat 96-well Nunc MaxiSorp plates with poly-glu-tyr (pGT) at […]: Prepare 10 μg/ml of pGT in PBS and aliquot 100 μl/well. Incubate the plates at 37° C. overnight, aspirate the supernatant, wash the plates 3 times with Wash Buffer, and flick to dry before storing at 4° C. 2. Prepare compound stock solutions of 2.5 mM in 100% DMSO. The stocks are subsequently diluted to 60× of the final concentration in 100% DMSO, and diluted 1:5 in Kinase Phosphorylation Buffer. 3. […] Add 80 μl to each well for a final ATP concentration of 50 μM. 4. […] 5. Dilute on ice, FAKcd protein to 1:1000 in Kinase Phosphorylation Buffer. Dispense 30 μl per well. 6. Note: Linearity and the appropriate dilution must be pre-determined for each batch of protein. The enzyme concentration selected should be such that quantitation of the assay signal will be approximately 0.8-1.0 at OD450, and in the linear range of the reaction rate. 7. Prepare both a No ATP control (noise) and a No Compound Control (Signal): 8. (Noise) One blank row of wells receives 10 μl of 1:5 diluted compounds in DMSO, 80 μl of Phosphorylation buffer (minus ATP), and 30 μl FAKcd solution. 9. […] 10. Incubate reaction at room temperature for 15 minutes with gentle shaking on a plate shaker. 11. Terminate the reaction by aspirating off the reaction mixture and washing 3 times with wash buffer. 12. Dilute phospho-tyrosine HRP-conjugated (pY20HRP) antibody to 0.250 μg/ml (1:1000 of Stock) in blocking buffer. Dispense 100 μl per well, and incubate with shaking for 30 minutes at 25°. 13. Aspirate the supernatant and wash the plate 3 times with wash buffer. 14. Add 100 μl per well of room temperature TMB solution to initiate color development. Color development is terminated after approximately 15-30 sec. by the addition of 100 μl of 0.09M H2SO4 per well. 15. The signal is quantitated by measurement of absorbance at 450 nm on the BioRad ricroplate reader or a microplate reader capable of reading at OD450. 16. Inhibition of tyrosine kinase activity would result in a reduced absorbance signal. […] The values are reported as IC50s, μM concentration. FAK Inducible cell-based ELISA: Final Protocol Materials: […]
Background: In an ELISA, binding on a coated surface is turned into a signal by an enzyme label.
Turning to `CN(c1ncccc1CNc1nc(Nc2ccc(C(=O)N3CCC[C@@H](O)C3)cc2)ncc1C(F)(F)F)S(C)(=O)=O` [Compound 275, N-{3-[({2-[(4-{[(3R)-3-hydroxypiperidin-1-yl]carbonyl}phenyl)amino]-5-(trifluoromethyl)pyrimidin-4-yl}amino)methyl]pyridin-2-yl}-N-methylmethane-sulfonamide], the half-maximal inhibitory concentration (IC50) was determined as 2.36 nM. The result for `CN(c1ncccc1CNc1nc(Nc2ccc(C(=O)N3CCC(F)(F)C3)cc2)ncc1C(F)(F)F)S(C)(=O)=O` [Compound 266, N-[3-({[2-({4-[(3.3-difluoropyrrolidin-1-yl)carbonyl]phenyl}amino)-5-(trifluoromethyl)pyrimidin-4-yl]amino}methyl)pyridin-2-yl]-N-methylmethane-sulfonamide] reads 0.6 nM. The result for `CN(c1ncccc1CNc1nc(Nc2ccc(C(=O)NCc3ccccn3)cc2)ncc1C(F)(F)F)S(C)(=O)=O` [Compound 248, 4-({4-[({2-[methyl(methylsulfonyl)amino]pyridin-3-yl}methyl)amino]-5-(trifluoromethyl)pyrimidin-2-yl}amino)-N-(pyridin-2-ylmethyl)benzamide] reads 9.35 nM. The result for `COCCCN(C)C(=O)c1cccc(Nc2ncc(C(F)(F)F)c(NCc3cccnc3N(C)S(C)(=O)=O)n2)c1` [Compound 181, N-(3-methoxypropyl)-N-methyl-3-({4-[({2-[methyl(methylsulfonyl)amino]pyridin-3-yl}methyl)amino]-5-(trifluoromethyl)pyrimidin-2-yl}amino)benzamide] reads 9.18 nM; that for `CN(c1cccnc1CNc1nc(Nc2ccccc2)ncc1C(F)(F)F)S(C)(=O)=O` [Compound 76, N-[2-({[2-anilino-5-(trifluoromethyl)pyrimidin-4-yl]amino}methyl)pyridin-3-yl]-N-methylmethane-sulfonamide], 93 nM; that for `CCC(=O)Nc1cccc(Nc2ncc(C(F)(F)F)c(NCc3cccnc3N(C)S(C)(=O)=O)n2)c1` [Compound 371, N-(3-({4-[({2-[methyl(methylsulfonyl)amino]pyridin-3-yl}methyl)amino]-5-(trifluoromethyl)pyrimidin-2-yl}amino)phenyl]propanamide], 1.94 nM. `CNC(=O)c1ccc(Nc2ncc(C(F)(F)F)c(NCc3nccnc3N(C)S(C)(=O)=O)n2)c(C)c1` [Compound 401, N,3-dimethyl-4-({4-[({3-[methyl(methylsulfonyl)amino]pyrazin-2-yl}methyl)amino]-5-(trifluoromethyl)pyrimidin-2-yl}amino)benzamide] registered an IC50 of 1.17 nM.

Compound `CC(=O)NCc1cccc(Nc2ncc(C(F)(F)F)c(NCc3cccnc3N(C)S(C)(=O)=O)n2)c1` [Compound 218, N-[3-({4-[({2-[methyl(methylsulfonyl)amino]pyridin-3-yl}methyl)amino]-5-(trifluoromethyl)pyrimidin-2-yl}amino)benzyl]acetamide] came in with a concentration for half-maximal inhibition (IC50) of 0.6 nM. The result for `CN(c1ncccc1CNc1nc(Nc2cccc(C(=O)NCc3ccccn3)c2)ncc1C(F)(F)F)S(C)(=O)=O` [Compound 139, 3-({4-[({2-[methyl(methylsulfonyl)amino]pyridin-3-yl}methyl)amino]-5-(trifluoromethyl)pyrimidin-2-yl}amino)-N-(pyridin-2-ylmethyl)benzamide] reads 1.91 nM.

For the compound `CN(c1ncccc1CNc1nc(Nc2ccc(CNCCO)cc2)ncc1C(F)(F)F)S(C)(=O)=O` [Compound 383, N-{3-[({2-[(4-{[(2-hydroxyethyl)amino]methyl}phenyl)amino]-5-(trifluoromethyl)pyrimidin-4-yl}amino)methyl]pyridin-2-yl}-N-methylmethane-sulfonamide], the IC50 was below 0.595 nM. Consider `CN(C)C(=O)CNC(=O)c1cccc(Nc2ncc(C(F)(F)F)c(NCc3cccnc3N(C)S(C)(=O)=O)n2)c1` [Compound 133, N-[2-(dimethylamino)-2-oxoethyl]-3-({4-[({2-[methyl(methylsulfonyl)amino]pyridin-3-yl}methyl)amino]-5-(trifluoromethyl)pyrimidin-2-yl}amino)benzamide], for which the IC50 came out at 1.95 nM. In other words, the single-digit nanomolar range. The result for `CN(c1ncccc1CNc1nc(Nc2cccc(C(N)=NO)c2)ncc1C(F)(F)F)S(C)(=O)=O` [Compound 408, N′-hydroxy-3-({4-[({2-[methyl(methylsulfonyl)amino]pyridin-3-yl}methyl)amino]-5-(trifluoromethyl)pyrimidin-2-yl}amino)benzenecarboximidamide] reads 2.29 nM; that for `CCC(CO)NC(=O)c1cccc(Nc2ncc(C(F)(F)F)c(NCc3cccnc3N(C)S(C)(=O)=O)n2)c1` (stereo not shown) [Compound 203, N-[1-(hydroxymethyl)propyl]-3-({4-[({2-[methyl(methylsulfonyl)amino]pyridin-3-yl}methyl)amino]-5-(trifluoromethyl)pyrirnidin-2-yl}amino)benzamide], 1.13 nM; that for `CN(c1ncccc1CNc1nc(Nc2ccc(C(=O)N3CCCCC3)cc2)ncc1C(F)(F)F)S(C)(=O)=O` [Compound 258, N-methyl-N-[3-({[2-{[4-(piperidin-1-ylcarbonyl)phenyl]amino}-5-(trifluoromethyl)pyrimidin-4-yl]amino}methyl)pyridin-2-yl]methanesulfonamide], 1.79 nM. The result for `CN(c1cccnc1CNc1nc(Nc2ccc(C(N)=O)c(F)c2)ncc1C(F)(F)F)S(C)(=O)=O` [Compound 332, 2-fluoro-4-({4-[({3-[methyl(methylsulfonyl)amino]pyridin-2-yl}methyl)amino]-5-(trifluoromethyl)pyrimidin-2-yl}amino)benzamide] reads 0.863 nM; that for `CN(C(=O)c1cccc(Nc2ncc(C(F)(F)F)c(NCc3cccnc3N(C)S(C)(=O)=O)n2)c1)C1CCCC1` [Compound 131, N-cyclopentyl-N-methyl-3-({4-[({2-[methyl(methylsulfonyl)amino]pyridin-3-yl}methyl)amino]-5-(trifluoromethyl)pyrimidin-2-yl}amino)benzamide], 10.8 nM; that for `CC(=O)NCc1ccc(Nc2ncc(C(F)(F)F)c(NCc3cccnc3N(C)S(C)(=O)=O)n2)cc1` [Example 5, N-(4-(4-((2-(N-methylmethan-5-ylsulfonamido)pyridin-3-yl)methylamino)-5-(trifluoromethyl)pyrimidin-2-ylamino)benzyl)acetamide], 0.6 nM. The result for `CCCC1(NC(=O)c2cccc(Nc3ncc(C(F)(F)F)c(NCc4cccnc4N(C)S(C)(=O)=O)n3)c2)CC1` [Compound 209, 3-({4-[({2-[methyl(methylsulfonyl)amino]pyridin-3-yl}methyl)amino]-5-(trifluoromethyl)pyrimidin-2-yl}amino)-N-(1-propylcyclopropyl)benzamide] reads 3.68 nM.

In turn, `CN(CCO)C(=O)c1cccc(Nc2ncc(C(F)(F)F)c(NCc3cccnc3N(C)S(C)(=O)=O)n2)c1` [Compound 115, N-(2-hydroxyethyl}-N-methyl-3-({4-[({2-[methyl(methylsulfonyl)amino]pyridin-3-yl)methyl)amino]-5-(trifluoromethyl)pyrimidin-2-yl}amino)benzamide] came in with an IC50 of 0.88 nM. The result for `Cc1ncc(CNc2nc(Nc3ccccc3)ncc2C(F)(F)F)c(N(C)S(C)(=O)=O)n1` [Compound 79, N-[5-({[2-anilino-5-(trifluoromethyl)pyrimidin-4-yl]amino}methyl)-2-methylpyrimidln-4-yl]-N-methylmethanesulfonamide] reads 2.62 nM; that for `CC(=O)NCC(=O)N1CCC(Nc2ncc(C(F)(F)F)c(NCc3cccnc3N(C)S(C)(=O)=O)n2)CC1` [Compound 56, N-{2-[4-({4-[({2-[methyl(methylsulfonyl)amino]pyridin-3-yl}methyl)amino]-5-(trifluoromethyl)pyrimidin-2-yl}amino)piperidin-1-yl]-2-oxoethyl}acetamide], 188 nM. The result for `CN(C(=O)c1ccc(Nc2ncc(C(F)(F)F)c(NCc3cccnc3N(C)S(C)(=O)=O)n2)cc1)C1CCCC1` [Compound 262, N-cyclopentyl-N-methyl-4-({4-[({2-[methyl(methylsulfonyl)amino]pyridin-3-yl}methyl)amino]-5-(trifluoromethyl)pyrimidin-2-yl}amino)benzamide] reads 5.8 nM.
